Source: PMC7504751, “Potential of 2-Chloro-N-(4-fluoro-3-nitrophenyl)acetamide Against Klebsiella pneumoniae and In Vitro Toxicity Analysis” (Molecules, 2020)
≈ marks a conversion by molar mass, not a printed value. Read-outs that look alike come from different tables or passages of the source.

Assays:
[1] = tested on: K. pneumoniae strains; experiment: Minimum inhibitory concentration (MIC), broth microdilution; format: cell-based, Klebsiella pneumoniae
Method: The clinical isolates strains of K. pneumoniae were used in this study belong to the MICOTECA of the Antibacterial and Antifungal Activity Research Laboratory of the Federal University of Paraíba, Brazil, which are: KP-25, KP-26, KP-56, KP-83, KP-87, KP-138, KP-143, KP-166, KP-173, KP-176, KP-260, and KP-326. The American Type Culture Collection strain ATCC-700603 was used as controls. For use in the assays, bacterial suspensions were prepared in 0.9% saline solution, from fresh cultures, and adjusted to the McFarland standard 0.5 scale.
To assess the antibacterial activity of substances A1 and A2, the minimum inhibitory concentration against K. pneumoniae strains was determined. The substances were solubilized in dimethyl sulfoxide (DMSO) at 5% and Tween-80 at 2%, to obtain emulsions in the concentrations necessary for use in the tests. The MIC determination was performed using the broth microdilution technique in a 96-well plate to obtain different concentrations of A1 and A2 [35]. In parallel, controls for sterility, cell viability, and interference of the vehicles used in the preparation of substance emulsions (DMSO and Tween-80) were also performed. MIC is defined as the lowest concentration capable of causing complete inhibition of bacterial growth after 24 h at 35 ± 2 °C.

[2] = tested on: red blood cells (RBC) of the ABO system; experiment: Antihemolytic activity (osmotic fragility); format: cell-based, human; conditions: 0.24% NaCl
Method: The tests were performed according to the recommendations established by the Code of Ethics of the World Medical Association, after approval by the ethics committee of the Centro Universitário de Patos (number: 3621284). Blood samples (types A, B, and O) and smears of oral mucosa were donated by young, healthy adults.
The analysis of the osmotic fragility of the red cells was performed using previously prepared red blood cell suspensions at 0.5%. Different concentrations (50, 100, 500, and 1000 µg/mL) of the A2 substance were used for the treatment of 0.5% RBC suspensions for 1h at 22 ± 2 °C. The samples were centrifuged at 2500 rpm for 5 min and the supernatant was discarded. The erythrocytes were resuspended in a hypotonic solution of 0.24% sodium chloride for one hour at 22 ± 2 °C. After this period, the samples were centrifuged at 700× g for 5 min and the hemolysis of the supernatant was quantified by spectrophotometry at 540 nm. As controls, a suspension of untreated red blood cells was used as a negative control (0% hemolysis) and in a hypotonic solution as a positive control (100% hemolysis).

[3] = tested on: K. pneumoniae (ATCC-700603 and KP-56); experiment: Time-kill kinetics; format: cell-based, Klebsiella pneumoniae
Method: The determination of the action time of A2 substance against K. pneumoniae (ATCC-700603 and KP-56) was carried out exposing the microorganisms to concentrations equivalent to MIC and 2× MIC during times 0, 2, 4, 6, 8, 10, and 24 h. After incubation on Mueller–Hinton agar, bacterial colonies were counted. Bactericidal activity was defined as a ≥3-log reduction in bacterial counts (log10 CFU/mL).

For `O=C(CCl)Nc1ccc(F)c([N+](=O)[O-])c1` [A2, 2-chloro-N-(4-fluoro-3-nitrophenyl)acetamide], the MIC ([1]; Klebsiella pneumoniae, ATCC700603, strain ATCC-700603, 24 h at 35 ± 2 °C, read-out: MIC) was 512 µg/mL (≈ 2200 µM), the MIC ([1]; Klebsiella pneumoniae, 100% of the K. pneumoniae strains used in this study, read-out: MIC) was 512 µg/mL (≈ 2200 µM) and the MIC ([1]; Klebsiella pneumoniae, strain KP-138, 24 h at 35 ± 2 °C, read-out: MIC) was 512 µg/mL (≈ 2200 µM). It also gave an MIC ([1]; strain KP-25, 24 h at 35 ± 2 °C) of 512 µg/mL (≈ 2200 µM), an MIC ([1]; strain KP-26, 24 h at 35 ± 2 °C) of 512 µg/mL (≈ 2200 µM) and an MIC ([1]; strain KP-56, 24 h at 35 ± 2 °C) of 512 µg/mL (≈ 2200 µM). For the same compound, the MIC ([1]; strain KP-83, 24 h at 35 ± 2 °C) was 512 µg/mL (≈ 2200 µM), the MIC ([1]; strain KP-87, 24 h at 35 ± 2 °C) was 512 µg/mL (≈ 2200 µM) and the MIC ([1]; strain KP-143, 24 h at 35 ± 2 °C) was 512 µg/mL (≈ 2200 µM). The MIC ([1]; strain KP-166, 24 h at 35 ± 2 °C) was 512 µg/mL (≈ 2200 µM), the MIC ([1]; strain KP-173, 24 h at 35 ± 2 °C) was 512 µg/mL (≈ 2200 µM) and the MIC ([1]; strain KP-176, 24 h at 35 ± 2 °C) was 512 µg/mL (≈ 2200 µM). For the same compound, the MIC ([1]; strain KP-260, 24 h at 35 ± 2 °C) was 512 µg/mL (≈ 2200 µM), the MIC ([1]; strain KP-326, 24 h at 35 ± 2 °C) was 512 µg/mL (≈ 2200 µM) and the “percentage of hemolysis in hypotonic solution (anti-hemolytic evaluation)” value ([2]; 1000 µg/mL, type B red blood cells) was > 80%. For the same compound, the “percentage of hemolysis in hypotonic solution (anti-hemolytic evaluation), class” value ([2]; all concentrations (50–1000 µg/mL), three ABO blood types, except 1000 µg/mL in type B) was “moderate (moderate (40% and 80%))”, the “time of treatment to total reduction of viable cells” value ([3]; A2 at 2× MIC) was 6 h and the “time of treatment to total reduction of viable cells” value ([3]; A2 at MIC) was 10 h.
